According to the NIST ThermoML archive (doi:10.1016/j.jct.2015.01.007):

Settings: for molar entropy: 101.33 kPa

O=P([O-])([O-])[O-].[Fe+2].[Li+] [iron(II) lithium phosphate]
molar entropy [J/K/mol]
Settings	Crystal 1, combination of DSC and relaxation calorimetry	Crystal 2, relaxation calorimetry
5 K	–	0.0577
10 K	–	0.1645
15 K	–	0.5534
20 K	–	1.241
25 K	–	2.309
30 K	–	3.785
35 K	–	5.708
40 K	–	8.078
42 K	–	9.158
45 K	–	10.96
46 K	–	11.63
47 K	–	12.33
48 K	–	13.07
49 K	–	13.86
49.24 K	14.06	14.06
50 K	14.7	–
51 K	15.21	–
52 K	15.67	–
53 K	16.11	–
54 K	16.53	–
55 K	16.95	–
60 K	19.01	–
65 K	21.09	–
70 K	23.23	–
80 K	27.71	–
90 K	32.41	–
100 K	37.27	–
110 K	42.25	–
120 K	47.28	–
130 K	52.34	–
140 K	57.41	–
150 K	62.46	–
160 K	67.48	–
170 K	72.46	–
180 K	77.39	–
190 K	82.26	–
200 K	87.07	–
210 K	91.83	–
220 K	96.51	–
230 K	101.1	–
240 K	105.7	–
250 K	110.2	–
260 K	114.6	–
270 K	119	–
280 K	123.3	–
290 K	127.5	–
298.15 K	130.9	–
300 K	131.7	–
320 K	139.9	–
340 K	147.9	–
360 K	155.6	–
380 K	163.1	–
400 K	170.5	–
420 K	177.6	–
440 K	184.6	–
460 K	191.4	–
480 K	198	–
500 K	204.4	–
520 K	210.8	–
540 K	216.9	–
560 K	223	–
580 K	228.9	–
600 K	234.6	–
620 K	240.3	–
640 K	245.8	–
660 K	251.2	–
680 K	256.5	–
700 K	261.8	–
720 K	266.9	–
740 K	271.9	–
760 K	276.8	–

Settings	Triple point temperature [K]
Crystal 2, Relaxation calorimeter	49.24
